What was measured:
[1] = system: panel of melanoma cell lines (A375, M14, RPMI7951); assay: Antiproliferative activity, panel of melanoma cell lines; type: cell-based, human; settings: for IC50: Homo sapiens, 72 h, read-out: IC50 values, range over the melanoma cell lines
[2] = biological target: Bovine brain tubulin (Bos taurus, UniProt P81947+Q6B856); assay: Tubulin polymerization assay; type: biochemical; settings: 10 μM compound, absorbance at 340 nm, 37 °C; vehicle control Vmax = 27
[3] = system: A375 melanoma xenograft; type: in vivo; settings: doses up to 30 mg/kg i.p., nude mice
[4] = system: docetaxel-resistant DU145/TxR prostate cancer cell line; assay: Cytotoxicity; type: cell-based; settings: at concentrations up to 1 μM

Bovine brain tubulin, sequence (Q6B856 whole entry): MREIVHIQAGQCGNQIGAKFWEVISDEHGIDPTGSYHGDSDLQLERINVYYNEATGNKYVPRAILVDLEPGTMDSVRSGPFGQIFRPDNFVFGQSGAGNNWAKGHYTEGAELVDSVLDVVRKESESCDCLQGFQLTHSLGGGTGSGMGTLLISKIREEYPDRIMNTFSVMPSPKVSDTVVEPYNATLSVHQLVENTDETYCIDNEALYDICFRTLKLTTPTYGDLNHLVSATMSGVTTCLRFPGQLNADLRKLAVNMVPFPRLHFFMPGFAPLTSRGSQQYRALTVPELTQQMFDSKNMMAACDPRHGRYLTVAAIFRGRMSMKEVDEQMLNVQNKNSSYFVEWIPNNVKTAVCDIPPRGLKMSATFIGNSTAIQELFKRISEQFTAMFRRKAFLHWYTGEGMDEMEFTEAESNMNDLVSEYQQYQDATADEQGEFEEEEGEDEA
Bovine brain tubulin, sequence (P81947 whole entry): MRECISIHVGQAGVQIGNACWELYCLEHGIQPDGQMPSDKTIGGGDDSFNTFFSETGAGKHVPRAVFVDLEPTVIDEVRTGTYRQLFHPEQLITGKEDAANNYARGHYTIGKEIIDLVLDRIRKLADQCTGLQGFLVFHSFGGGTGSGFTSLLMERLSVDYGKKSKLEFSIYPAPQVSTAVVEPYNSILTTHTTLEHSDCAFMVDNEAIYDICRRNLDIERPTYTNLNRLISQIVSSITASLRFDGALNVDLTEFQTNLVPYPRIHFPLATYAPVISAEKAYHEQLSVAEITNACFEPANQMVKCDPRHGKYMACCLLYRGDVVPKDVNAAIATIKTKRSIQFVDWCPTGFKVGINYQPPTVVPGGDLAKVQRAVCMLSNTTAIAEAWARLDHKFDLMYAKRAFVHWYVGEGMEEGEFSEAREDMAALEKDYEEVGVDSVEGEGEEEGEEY

| IC50 [1] [nM] | Compound | further results |
| --- | --- | --- |
| 119 to 218 | O=C(c1ccc2c(c1)OCCO2)c1c[nH]c(-c2c[nH]c3ccccc23)n1 [13a, (2-(1H-Indol-3-yl)-1H-imidazol-5-yl)(2,3-dihydrobenzo[b][1,4]-dioxin-6-yl)methanone] |  |
| 11.3 to 29.2 | COc1cc(C(=O)c2c[nH]c(-c3c[nH]c4ccccc34)n2)cc2c1OCCO2 [13c, (2-(1H-Indol-3-yl)-1H-imidazol-5-yl)(8-methoxy-2,3-dihydrobenzo[b][1,4]dioxin-6-yl)methanone] |  |
| 3.5 to 5.6 | COc1cc(C(=O)c2c[nH]c(-c3c[nH]c4ccccc34)n2)cc2c1OCO2 [13d, (2-(1H-Indol-3-yl)-1H-imidazol-5-yl)(7-methoxybenzo[d][1,3]-dioxol-5-yl)methanone] | fold more active than 13b ([1]; antiproliferative IC50 compared with 13b): 30 fold; fold more potent than 13c ([1]; antiproliferative IC50 compared with 13c): ~ 4 fold |
| 32.2 to 47.7 | COc1cc(C(=O)c2c[nH]c(-c3c[nH]c4ccccc34)n2)cc2c1OCCCO2 [13e, (2-(1H-Indol-3-yl)-1H-imidazol-5-yl)(9-methoxy-3,4-dihydro-2H-benzo[b][1,4]dioxepin-7-yl)methanone] |  |
|  | COc1cc(C(=O)c2c[nH]c(-c3cccc4[nH]ccc34)n2)cc2c1OC=CO2 [compound 19, (2-(1H-Indol-4-yl)-1H-imidazol-5-yl)(8-methoxybenzo[b][1,4]-diOXin-6-yl)methanone] | fold reduced antiproliferative activity compared to 13f ([1]; compared with 13f): ~ 11 fold |
| 6.1 to 8.8 | COc1cc(C(=O)c2c[nH]c(-c3c[nH]c4cccc(C)c34)n2)cc2c1OC=CO2 [compound 25, (8-Methoxybenzo[b][1,4]dioxin-6-yl) (2-(4-methyl-1H-indol-3-yl)-1H-imidazol-5-yl)methanone] |  |
|  | CC(=O)O[C@H]1C(=O)[C@@]2(C)[C@H]([C@H](OC(=O)c3ccccc3)[C@]3(O)C[C@H](OC(=O)[C@H](O)[C@@H](NC(=O)c4ccccc4)c4ccccc4)C(C)=C1C3(C)C)[C@]1(OC(C)=O)CO[C@@H]1C[C@@H]2O [paclitaxel] | effect in DU145/TxR cells [4]: no effect was observed at all |

| Compound | IC50 [1] [nM] | further results |
| --- | --- | --- |
| COc1cc(C(=O)c2c[nH]c(-c3c[nH]c4ccccc34)n2)cc2c1OC=CO2 [13f, (2-(1H-Indol-3-yl)-1H-imidazol-5-yl)(8-methoxybenzo[b][1,4]-diOXin-6-yl)methanone] | 1.1 to 3.3 | tubulin polymerization Vmax [2]: 0; apparent toxicity (mouse weights and activities) [3]: without causing apparent toxicity |

Reference: article PMC6637749 (Journal of medicinal chemistry, 2018)
